Measured values published in PubChem BioAssay (NCI).
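Following 48 hours of exposure in 96-well plates, responses at five concentrations were used to interpolate endpoints linearly. Abbreviation: GI50, concentration required for 50% inhibition of growth. TGI is the concentration that stops growth completely.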

What was measured:
Assay in all cases: DTP human tumour cell line panel, 48 h
[1] = tested on: SF-295 CNS
[2] = tested on: SF-268 CNS
[3] = tested on: SN12C renal
[4] = tested on: A549 NSCLC
[5] = tested on: HL-60(TB) leukemia
[6] = tested on: A498 renal
[7] = tested on: TK-10 renal
[8] = tested on: SW-620 colon
[9] = tested on: NCI-H226 lung
[10] = tested on: SR leukemia
[11] = tested on: MALME-3M melanoma
[12] = tested on: HT29 colon
[13] = tested on: HCC-2998 colon
[14] = tested on: UO-31 renal
[15] = tested on: CAKI-1 renal
[16] = tested on: PC-3 prostate
[17] = tested on: NCI-H23 lung
[18] = tested on: ACHN renal
[19] = tested on: NCI/ADR-RES ovarian
[20] = tested on: DU-145 prostate
[21] = tested on: EKVX NSCLC
[22] = tested on: COLO 205 colon
[23] = tested on: NCI-H460 lung
[24] = tested on: SK-MEL-5 melanoma
[25] = tested on: UACC-257 melanoma
[26] = tested on: M14 melanoma
[27] = tested on: K-562 leukemia
[28] = tested on: HS 578T breast
[29] = tested on: RPMI-8226 leukemia
[30] = tested on: OVCAR-3 ovarian
[31] = tested on: SNB-75 CNS
[32] = tested on: MDA-MB-231 breast
[33] = tested on: OVCAR-4 ovarian
[34] = tested on: SF-539 CNS
[35] = tested on: T-47D breast
[36] = tested on: SK-MEL-28 melanoma
[37] = tested on: MDA-MB-435
[38] = tested on: HCT-116 colon
[39] = tested on: SK-OV-3 ovarian
[40] = tested on: 786-0 renal
[41] = tested on: HCT-15 colon
[42] = tested on: MOLT-4 leukemia
[43] = tested on: CCRF-CEM leukemia
[44] = tested on: LOX IMVI melanoma
[45] = tested on: OVCAR-5 ovarian
[46] = tested on: BT-549 breast
[47] = tested on: UACC-62 melanoma
[48] = tested on: KM12 colon

With `COc1cc2nc(Cl)nc(Nc3cccc(C4=Nc5c(N)nc(N)nc5NC(c5ccc(F)cc5)C4)c3)c2cc1OC` (stereo unspecified) the GI50 [1] was 1820 nM, the TGI [1] was 3500 nM and the GI50 [2] was 1680 nM. For the same compound, the TGI [2] was 3680 nM, the GI50 [3] was 1720 nM and the TGI [3] was 3480 nM. It also gave a GI50 [4] of 2640 nM, a TGI [4] of 7820 nM and a GI50 [5] of 1950 nM. It also gave a TGI [5] of 4090 nM, a GI50 [6] of 1010 nM and a TGI [6] of 2470 nM. For the same compound, the GI50 [7] was 1950 nM, the TGI [7] was 3860 nM and the GI50 [8] was 1760 nM. For the same compound, the TGI [8] was 3600 nM, the GI50 [9] was 3220 nM and the TGI [9] was 16600 nM. For the same compound, the GI50 [10] was 1960 nM, the TGI [10] was 4800 nM and the GI50 [11] was 2010 nM. For the same compound, the TGI [11] was 3760 nM, the GI50 [12] was 2050 nM and the TGI [12] was 4380 nM. The GI50 [13] was 1920 nM, the TGI [13] was 3480 nM and the GI50 [14] was 1550 nM. The TGI [14] was 3540 nM, the GI50 [15] was 1610 nM and the TGI [15] was 3270 nM. For the same compound, the GI50 [16] was 2170 nM, the TGI [16] was 6680 nM and the GI50 [17] was 2000 nM. It also gave a TGI [17] of 4730 nM, a GI50 [18] of 1740 nM and a TGI [18] of 3220 nM. The GI50 [19] was 6070 nM, the TGI [19] was > 100000 nM and the GI50 [20] was 1770 nM. For the same compound, the TGI [20] was 3440 nM, the GI50 [21] was 1500 nM and the TGI [21] was 3990 nM. The GI50 [22] was 1770 nM, the TGI [22] was 3510 nM and the GI50 [23] was 1910 nM. The TGI [23] was 3820 nM, the GI50 [24] was 1650 nM and the TGI [24] was 3020 nM. For the same compound, the GI50 [25] was 1960 nM, the TGI [25] was 3940 nM and the GI50 [26] was 1860 nM. The TGI [26] was 3700 nM, the GI50 [27] was 1960 nM and the TGI [27] was 4680 nM. It also gave a GI50 [28] of 1980 nM, a TGI [28] of 4530 nM and a GI50 [29] of 1770 nM. For the same compound, the TGI [29] was 4420 nM, the GI50 [30] was 1850 nM and the TGI [30] was 3550 nM. For the same compound, the GI50 [31] was 1130 nM, the TGI [31] was 2420 nM and the GI50 [32] was 1490 nM. For the same compound, the TGI [32] was 3030 nM, the GI50 [33] was 1630 nM and the TGI [33] was 3380 nM. The GI50 [34] was 1530 nM, the TGI [34] was 2930 nM and the GI50 [35] was 1930 nM. The TGI [35] was 4640 nM, the GI50 [36] was 1620 nM and the TGI [36] was 3040 nM. It also gave a GI50 [37] of 1660 nM, a TGI [37] of 3110 nM and a GI50 [38] of 1760 nM. The TGI [38] was 3340 nM, the GI50 [39] was 25700 nM and the TGI [39] was 59300 nM. For the same compound, the GI50 [40] was 1560 nM, the TGI [40] was 2990 nM and the GI50 [41] was 1960 nM. The TGI [41] was 4270 nM, the GI50 [42] was 1770 nM and the TGI [42] was 5450 nM. It also gave a GI50 [43] of 1050 nM, a TGI [43] of 4140 nM and a GI50 [44] of 1780 nM. The TGI [44] was 3510 nM, the GI50 [45] was 1790 nM and the TGI [45] was 3550 nM. The GI50 [46] was 2290 nM, the TGI [46] was 4360 nM and the GI50 [47] was 1760 nM. For the same compound, the TGI [47] was 3310 nM, the GI50 [48] was 1880 nM and the TGI [48] was 3610 nM.
